Data published in patent publication US20250255857A1, “METHODS OF TREATING ANDROGEN RECEPTOR-INDEPENDENT PROSTATE CANCER” (FOGHORN THERAPEUTICS INC., priority 2022, published 2025).

Columns and labels:
[1] = test system: LNCaP prostate xenograft tumors; assay: LNCaP prostate xenograft tumor model, tumor growth inhibition; assay type: in vivo, mice
Procedure: (§1) Procedure: The experimental details of the studies, including tumor model, mouse strain, cell number implanted, vehicle used, days of treatment, treatment details, and average tumor size at start of dosing are outlined in Table 1. All study mice were purchased from Beijing Anikeeper Biotech and Matrigel was utilized as a basement membrane for all xenograft models. All xenografts were engrafted subcutaneously in the right flank region. The vehicles and Compound 1 (3 mg/kg) were administered twice weekly (BIW) intraperitoneally and enzalutamide (30 mg/kg) was administered orally once daily (QD), when applicable. Tumor volumes and body weights were measured over the course of study, and doses were adjusted by body weight to achieve the proper dose in terms of mg/kg.

[2] = test system: VCaP prostate xenograft tumors; assay: VCaP prostate xenograft tumor model (Example 1), tumor growth inhibition; assay type: in vivo, mice; conditions: VCaP CDX model, AR V7+; 30 mg/kg QD oral
Procedure: as §1

[3] = test system: 22Rv1 prostate xenograft tumors; assay: 22Rv1 prostate xenograft tumor model, tumor growth inhibition; assay type: in vivo, mice
Procedure: as §1

[4] = test system: VCAP human prostate cancer tumor cells; assay: VCaP CRPC CDX model in castrated mice (Example 6), tumor growth inhibition and tolerability; assay type: in vivo; conditions: castrated mice
Procedure: Procedure: The experimental details of the studies, including tumor model, mouse strain, cell number implanted, vehicle used, days of treatment, treatment details, and average tumor size at start of dosing are outlined in Table 7. All study mice were obtained and the studies were conducted at Pharmaron. Each mouse was inoculated subcutaneously on the right flank with the single cell suspension of VCAP human prostate cancer tumor cells (1×10^7) in 0.1 mL with Matrigel (1:1) in DMEM medium with 10% FBS for tumor development. The mice were castrated by removing the testes via a scrotal approach when the tumor volume reached 270 mm^3. After castration, the tumor volume decreased. Treatment started when the mean tumor volume grew back 265 mm^3. Based on tumor volume, mice were randomly assigned to respective groups using a computer-generated randomization procedure and treated according to the study design in Table 8.

[5] = test system: C42B prostate xenograft tumors; assay: C42B prostate xenograft tumor model, tumor growth inhibition; assay type: in vivo, mice; conditions: C42B CDX model, AR+; 30 mg/kg QD oral
Procedure: as §1

[6] = VCAP CRPC model, Enzalutamide at 30 mg/kg PO QD, 25 days
[7] = VCAP CRPC model, Enzalutamide at 30 mg/kg PO QD, 25 days, Day 57

CNC(=O)c1ccc(N2C(=S)N(c3ccc(C#N)c(C(F)(F)F)c3)C(=O)C2(C)C)cc1F [enzalutamide, reference compound]
TGI with Enzalutamide 30 mg/kg ([1]; LNCaP CDX model, AR+, 30 mg/kg QD oral): 92.1%
tumor growth inhibition (TGI), in words ([1]; LNCaP xenograft, Compound 1 3 mg/kg BIW IP, enzalutamide 30 mg/kg QD oral): did lead to tumor growth inhibition
TGI with Enzalutamide 30 mg/kg [2]: 46.8%
TGI with Enzalutamide 30 mg/kg ([3]; 22RV1 CDX model, AR V7+, 30 mg/kg QD oral): 40.3%
TGI ([3]; 22Rv1 CDX model, Compound 1 3 mg/kg BIW IP, enzalutamide 30 mg/kg QD oral): 40.3%
Tumor Growth % on Day 57 [4, 6]: 238 ± 9%
Tumor Size on Day 57 [4, 6]: 626 ± 28 mm3
T/C [4, 7]: 76.7%
TGI [4, 7]: 23.3%
TGI ([4]; VCaP CRPC model, Compound 1 10 mg/kg, enzalutamide 30 mg/kg, day 57 after tumor inoculation): 23.3%
TGI with Enzalutamide 30 mg/kg [5]: 68.5%
